This is an account of results in patent publication US20120022116A1, “COMPOSITIONS AND METHODS FOR THE TREATMENT OF PATHOLOGICAL CONDITION(S) RELATED TO GPR35 AND/OR GPR35-HERG COMPLEX” (priority 2010, published 2012).

For data set [1], the target named is hERG channel (Homo sapiens, UniProt Q12809).
The subject of data set [2] is hERG channel.
The target of data set [3] is T1, GPR35 (Homo sapiens, UniProt Q9HC97).
T1 construct: myc; expressed in transfected cells; host or cells: HEK293, transient co-transfection (Lipofectamine LTX)
Put plainly: Ca2+ mobilization assay (Fluo-4) in HEK-GPR35-Gqo5 cells. The class given is cell-based. A general note: A change in cytosolic calcium serves as a functional read-out for many receptors and channels.

Data set [4] concerns GPR35. Put plainly: DMR desensitization / antagonism mode against GPR35 agonist-induced DMR in HT29 cells. Format: cell-based, human. The settings on record: HT29 cells pretreated with compound, then GPR35 agonist.

SMILES strings stand for the structures.

T1 sequence (Q9HC97 whole entry): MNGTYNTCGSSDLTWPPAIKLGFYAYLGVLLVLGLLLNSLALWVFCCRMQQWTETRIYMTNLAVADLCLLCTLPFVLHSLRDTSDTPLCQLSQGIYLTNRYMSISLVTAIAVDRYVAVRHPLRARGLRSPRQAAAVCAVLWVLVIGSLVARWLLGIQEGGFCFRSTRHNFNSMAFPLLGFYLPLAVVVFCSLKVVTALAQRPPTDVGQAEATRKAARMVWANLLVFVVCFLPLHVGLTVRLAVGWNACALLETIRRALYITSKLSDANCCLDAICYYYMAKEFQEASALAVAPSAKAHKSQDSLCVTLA
Sequence of hERG channel (Homo sapiens, UniProt Q12809) (Q12809 whole entry): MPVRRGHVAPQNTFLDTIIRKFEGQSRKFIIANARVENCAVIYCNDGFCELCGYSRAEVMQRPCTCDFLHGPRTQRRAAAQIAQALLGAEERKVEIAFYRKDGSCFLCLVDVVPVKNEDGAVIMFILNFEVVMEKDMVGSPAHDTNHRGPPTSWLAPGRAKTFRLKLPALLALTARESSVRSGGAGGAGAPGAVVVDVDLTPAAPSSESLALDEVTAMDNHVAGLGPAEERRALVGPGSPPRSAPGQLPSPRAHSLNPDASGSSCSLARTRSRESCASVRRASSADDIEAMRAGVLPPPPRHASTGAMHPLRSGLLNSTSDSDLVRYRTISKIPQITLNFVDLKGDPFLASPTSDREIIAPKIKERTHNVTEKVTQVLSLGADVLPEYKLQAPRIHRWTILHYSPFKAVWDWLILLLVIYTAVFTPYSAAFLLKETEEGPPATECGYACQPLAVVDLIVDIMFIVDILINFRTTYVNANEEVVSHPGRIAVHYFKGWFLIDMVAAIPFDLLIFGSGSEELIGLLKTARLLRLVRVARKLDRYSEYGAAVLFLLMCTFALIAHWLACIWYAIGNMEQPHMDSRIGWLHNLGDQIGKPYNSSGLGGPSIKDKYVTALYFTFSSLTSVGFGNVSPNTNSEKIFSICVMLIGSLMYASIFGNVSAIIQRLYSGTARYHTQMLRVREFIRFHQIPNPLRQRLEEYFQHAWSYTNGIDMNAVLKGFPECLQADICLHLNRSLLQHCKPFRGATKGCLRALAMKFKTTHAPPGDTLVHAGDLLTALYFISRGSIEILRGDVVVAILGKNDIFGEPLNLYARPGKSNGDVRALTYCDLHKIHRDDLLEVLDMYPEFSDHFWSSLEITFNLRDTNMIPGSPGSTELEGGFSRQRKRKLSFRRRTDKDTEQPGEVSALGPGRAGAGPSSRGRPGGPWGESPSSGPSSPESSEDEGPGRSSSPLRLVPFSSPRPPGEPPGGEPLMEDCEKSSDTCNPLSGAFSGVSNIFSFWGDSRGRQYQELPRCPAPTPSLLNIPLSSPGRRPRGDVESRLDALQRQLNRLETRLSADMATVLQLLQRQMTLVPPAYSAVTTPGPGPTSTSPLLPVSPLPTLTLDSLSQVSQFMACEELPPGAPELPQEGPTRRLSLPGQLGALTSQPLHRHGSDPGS

For `O=[N+]([O-])c1cc2nc(O)c(O)nc2cc1[N+](=O)[O-]` [DNQX], the “Electrophysiology (HEK-hERG)” value on hERG channel [1] is “inactive”. The “Desenstization to hERG activator” value in the data set with hERG channel [2] is recorded as “partially desenstized”. For the same molecule, the “Ca2+ moblization (HEK-GPR35-Gqo5)” value on GPR35 [3] (HEK293 cells co-expressing GPR35 and Gqo5, Fluo-4, compounds 10 μM) is “active”. Further, the “Ca2+ mobilization signal in cells co-expressing GPR35 and Gqo5” value on GPR35 [3] (engineered HEK293, 10 μM) is on record as “active”. Moreover, in the data set with GPR35 [4], the “Desenstization to GPR35 agonist” value is given as “desenstized”.
